Measurements published in patent US10005731B2, “Modulators of the retinoid-related orphan receptor gamma (ROR-gamma) for use in the treatment of autoimmune and inflammatory diseases” (Glaxo Group Limited, priority 2012, dated 2018).
Structures can show the parent of a compound that is named as a salt.

Experiments:
[1] = target: T1, Human RORγ Ligand Binding Domain (RORγ-LBD) (Homo sapiens, UniProt P51449); assay: Dual Fluorescence Energy Transfer (FRET) assay, RORγ-LBD / SRC1(2) co-activator peptide interaction; type: biochemical; details: mean of multiple test results if tested more than once; read-out: pIC50 in the dual FRET assay (converted)
T1 construct: made in house; host or cells: E. coli BL21(DE3), modified pET21a
T1 sequence (P51449 263-518): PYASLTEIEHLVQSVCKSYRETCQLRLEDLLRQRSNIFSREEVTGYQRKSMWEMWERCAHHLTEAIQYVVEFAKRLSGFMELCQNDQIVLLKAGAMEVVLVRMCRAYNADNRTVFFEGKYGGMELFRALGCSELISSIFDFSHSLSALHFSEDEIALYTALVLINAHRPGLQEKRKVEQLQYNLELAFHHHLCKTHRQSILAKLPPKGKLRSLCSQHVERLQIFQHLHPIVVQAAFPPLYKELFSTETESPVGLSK
From the text: This assay is based on the knowledge that nuclear receptors interact with cofactors (transcription factors) in a ligand dependent manner. RORγ is a typical nuclear receptor in that it has an AF2 domain in the ligand binding domain (LBD) which interacts with co-activators.
The assay measures ligand-mediated interaction of the co-activator peptide with the purified bacterial-expressed RORγ ligand binding domain (RORγ-LBD) to indirectly assess ligand binding. RORγ has a basal level of interaction with the co-activator SRC1(2) in the absence of ligand, thus it is possible to find ligands that inhibit or enhance the RORγ/SRC1(2) interaction.
Human RORγ Ligand Binding Domain (RORγ-LBD) was expressed in E.coli strain BL21(DE3) as an amino-terminal polyhistidine tagged fusion protein. DNA encoding this recombinant protein was sub-cloned into a modified pET21a expression vector (Novagen).
Approximately 50 g E. coli cell pellet was resuspended in 300 mL of lysis buffer (30 mM imidazole pH 7.0 and 150 mM NaCl). Cells were lysed by sonication and cell debris was removed by centrifugation for 30 minutes at 20,000 g at 4° C. […] The clarified lysate was loaded onto a column (XK-26) packed with ProBond Nickel Chelating resin (Invitrogen), pre-equilibrated with 30 mM imidazole pH 7.0 and 150 mM NaCl. After washing to baseline absorbance with the equilibration buffer, the column was developed with a gradient from 30 to 500 mM imidazole pH 7.0. Column fractions containing the RORγ-LBD protein were pooled and concentrated to a volume of 5 mls. The concentrated protein was loaded onto a Superdex 200 column pre-equilibrated with 20 mM Tris-CI pH 7.2 and 200 mM NaCl. The fractions containing the desired RORγ-LBD protein were pooled together.
Purified RORγ-LBD was buffer exchanged by exhaustive dialysis [3 changes of at least 20 volumes (>8000x)] against PBS [100mM NaPhosphate, pH 8 and 150mM NaC1]. […] The modified protein was distributed into aliquots, frozen on dry ice and stored at −80° C. The biotinylated RORγ-LBD was subjected to mass spectrometric analysis to reveal the extent of modification by the biotinylation reagent.
An appropriate amount of Europium labeled Streptavidin was then added to the biotinylated SRC1(2) solution in a tube to give a final concentration of 10 nM. The tube was inverted gently and incubated for 15 minutes at room temperature. Twenty-fold excess biotin from the 10 mM stock solution was added and the tube was inverted gently and incubated for 10 minutes at room temperature.
Preparation of APC labeled RORγ-LBD: biotinylated RORγ-LBD solution was prepared by adding an appropriate amount of biotinylated RORγ-LBD from the stock solution to a buffer containing 10 mM of freshly added DTT from solid to give a final concentration of 40 nM. An appropriate amount of APC labeled Streptavidin was then added to the biotinylated RORγ-LBD solution in a tube to give a final concentration of 20 nM. The tube was inverted gently and incubated for 15 minutes at room temperature. Twenty-fold excess biotin from the 10 mM stock solution was then added and the tube was inverted gently and incubated for 10 minutes at room temperature.
The reaction mixtures were incubated for 5 minutes. […] The plates were incubated for lhr and then read on ViewLux in Lance mode for EU/APC.

[2] = In vitro percutaneous study (Franz diffusion cells, aqueous cream); type: in vitro ADME, human
From the text: The in vitro percutaneous study is aimed to predict the level of percutaneous penetration obtained for a compound in a topical formulation for psoriasis. This assay coupled with the intrinsic potency of the compound are used to predict the likelihood of success of a compound to engage the target. The higher the ratio of the percutaneous penetration to the intrinsic potency, the higher the ratio of local skin concentration to the intrinsic potency and therefore the higher the chance of a compound to engage the target in a topical formulation.
The compounds were manufactured in a modified aqueous cream at pH=6.
The study was conducted with dermatomed abdominal human skin sourced from three skin donors using 2 cm2 Franz diffusion cells. The receiving fluid consisted of Bovine serum albumin (4% w/v) in 0.1% w/v sodium azide in Phospate Buffer Saline and was heated at 37° C. in order to obtain 32° C. at the skin surface. The cream formulation was applied on the donor side at a 10 mg dose, i.e. 5 mg/cm^2. The samples taken at the following time points: t=0, 3, 6, 9 and 24 h. The receiver samples were then assayed using a method based upon protein precipitation with acetonitrile followed by LC/MS/MS analysis. The percutaneous flux (in ng/cm^2/hr) was determined using the individual API (in a multiple composition) that had permeated into the receiver compartment over 24 hrs per cm^2.

| Flux over 24 hrs ([2]; 1.0% w/w in aqueous cream pH=6, 5 mg/cm^2, human skin from three donors) [ng/cm^2/hr] | ratio of percutaneous penetration (Flux) to intrinsic potency (Th17 cell differentiation assay IC50) ([2]; ranking among the three compounds tested) | SMILES | IC50 [1] [nM] |
| --- | --- | --- | --- |
| 3.43 | highest ratio | Cc1c(CN2CCN(C(=O)C3CCCC3)[C@@H](C)C2)cc(F)cc1NC(=O)c1cccc(C#N)c1 [Example 66, (S)-3-cyano-N-(3-((4-(cyclopentanecarbonyl)-3-methylpiperazin-1-yl)methyl)-5-fluoro-2-methylphenyl)benzamide] | ~39.8 |
| – | – | Cc1c(CN2CCN(C(=O)C3CCCC3)[C@@H](C)C2)cc(Cl)cc1NC(=O)c1cccc(C#N)c1 [Example 193, (S)-N-(5-chloro-3-((4-(cyclopentanecarbonyl)-3-methylpiperazin-1-yl)methyl)-2-methylphenyl)-3-cyanobenzamide, trifluoroacetic acid salt] | ~63.1 |
